Experimental data published in US20200072711A1, “FLUORESCENT ENDOPLASMIC RETICULUM TRACKERS FOR LIVE CELL IMAGING OF PATHOGENIC YEAST” (Ramot at Tel Aviv University Ltd., priority 2018, published 2020).
Converted amounts (≈) assume the structure as drawn. “Also recorded” adds a separate entry of the source.

System: C. albicans ATCC 24433
Assay: Minimal inhibitory concentration broth double-dilution assay
Assay type: cell-based
Settings: Candida albicans, ATCC24433, 24 h, 37° C., Casitone
Description: (§1) Minimal inhibitory concentration broth double-dilution assay. All strains were tested using the double-dilution method in 96-well plates (Corning). Yeast strains were grown in Casitone growth medium. Starter cultures were incubated for 24 h (37° C., 5% CO2, aerobic conditions) and then diluted 1:100 into fresh medium. Compounds dissolved in ethanol or in DMSO were added to the casitone broth to form the mother liquor (32 μL stock solution in 1218 μL of casitone) at the starting concentration of 64 μg/mL. Next, 100 μL of serial double dilutions of compounds in Casitone ([…], and 0.007 μg/mL) were prepared in flat-bottomed 96-well microplates (Corning). Control wells with no compounds, and wells without yeast cells containing each tested concentration of the compounds (blanks), were also prepared. An equal volume (100 μL) of yeast suspensions in Casitone broth that was prepared as follows: 900 mL doubly distilled H2O, 9 g Casitone (bacto-casitone), 5 g yeast extract, 11.5 g sodium citrate dihydrate, 20 g glucose. The yeast suspension was added to each well for a final volume of 200 μL. The ethanol or the DMSO concentrations ranged from 0.0012% to 1.3%. The final inoculum was between 5×10^4 colony-forming unit (CFU)/mL and 5×10^5 CFU/mL; identical results were obtained when using 5×10^3 CFU/mL as a final inoculum. After incubation for 24 h at 37° C. in 5% CO2, MTT (3-[4,5-dimethylthiazole-2-yl]-2,5-diphenyltetrazolium bromide; 50 μL of a 1 mg/mL solution in H2O) was added to each well followed by additional incubation at 37° C. for 2 h. Each concentration was tested in triplicate, and results were confirmed by two independent sets of experiments.
`OC(Cn1cncn1)(Cn1cncn1)c1ccc(F)cc1F` [FLC, fluconazole, reference compound] showed an MIC of 0.5 µg/mL (≈ 1.63 µM).

System: C. albicans SN152
Assay: as above
Assay type: cell-based
Settings: Candida albicans, 24 h, 37° C., Casitone
Description: as §1
For `OC(Cn1cncn1)(Cn1cncn1)c1ccc(F)cc1F` [FLC, fluconazole, reference compound], the MIC was 0.5 µg/mL (≈ 1.63 µM).

System: C. glabrata ATCC 2001
Assay: as above
Assay type: cell-based, Candida glabrata
Settings: Nakaseomyces glabratus, ATCC2001, 24 h, 37° C., Casitone
Description: as §1
`OC(Cn1cncn1)(Cn1cncn1)c1ccc(F)cc1F` [FLC, fluconazole, reference compound] showed an MIC of 64 µg/mL (≈ 209 µM).

System: C. glabrata ATCC 66032
Assay: as above
Assay type: cell-based, Candida glabrata
Settings: Nakaseomyces glabratus, ATCC66032, 24 h, 37° C., Casitone
Description: as §1
With `OC(Cn1cncn1)(Cn1cncn1)c1ccc(F)cc1F` [FLC, fluconazole, reference compound] the MIC was 64 µg/mL (≈ 209 µM).

System: C. albicans SN152
Assay: Live cell imaging, ER labeling
Assay type: cell-based, Candida albicans
Settings: not given
Description: (§2) Growth conditions for live cell imaging. Cells were grown to log phase in liquid YPD overnight at 30° C. in a 10 ml tube. Cells were diluted 1:10 and then incubated for 2 h at 30° C. to log phase.
(§3) Cell staining. The fluorescent probes were added to a final concentration of 10 μM for probes 1-6 to cells from a log phase culture grown in YPD broth media at 30° C. Cells were then incubated in the dark for a total of 60 min. Before imaging, cells were washed once with PBS buffer. For ER-tracker dyes, DiOC6 (1 μg/mL) and BODIPY™ TR Glibenclamide (1 μM), staining cells were incubated in a prepared Hanks' Balanced Salt Solution at 37° C. for 5 min and 30 min, respectively. For ER-tracker Blue-White DPX (1 μM), staining cells were incubated in YPD for 30 min at 30° C. For mitochondrial staining the previously reported Cy5-based mitochondrial dye was used (1 μg/mL). For staining, cells were incubated in YPD in the presence of dye for 5 min at 30° C. Cells were then washed with PBS buffer once.
(§4) Live cell imaging. Candida cells were resuspended in PBS buffer and 2 μL were placed on a glass slides and covered with glass coverslips. […]
In the case of `CCCCCCN1C(=CC=Cc2oc3ccccc3[n+]2CCCCCC)Oc2ccccc21.[I-]` [DiOC6, 3,3′-dihexyloxacarbocyanine iodide], the staining pattern was “non-specific staining of other cellular compartments such as lipid droplets was also observed”.

System: C. albicans cells
Assay: Live cell imaging, ER labeling
Assay type: cell-based, Candida albicans
Settings: not given
Description: as §2, §3, §4
In the case of `CN(C)c1ccc(-c2cnc(-c3ccc(S(=O)(=O)NCCNC(=O)c4c(F)c(F)c(F)c(F)c4F)cc3)o2)cc1` [Blue-White DPX], the staining pattern was “non-specific staining of the cytoplasm”.

System: C. glabrata strains
Assay: Live cell imaging, ER labeling
Assay type: cell-based, Candida glabrata
Settings: C. glabrata yeast cells
Description: as §2, §3, §4
With `CN(C)c1ccc(-c2cnc(-c3ccc(S(=O)(=O)NCCNC(=O)c4c(F)c(F)c(F)c(F)c4F)cc3)o2)cc1` [Blue-White DPX] the staining pattern was “label the ER; also recorded: a circular pattern around the nuclear envelope with peripheral cortical extensions reminiscent of the ER structure was clearly visible”.

System: tested panel of Candida strains
Assay: Live cell imaging, ER labeling
Assay type: cell-based
Settings: panel of Candida strains (C. albicans and C. glabrata)
Description: as §2, §3
Live cell imaging. Candida cells were resuspended in PBS buffer and 2 μL were placed on a glass slides and covered with glass coverslips. C. glabrata (ATCC 2001) cells treated with probes 1-6, all tested Candida cells treated with ER-tracker Blue-White DPX and inter-organelle interaction study were imaged on a MORE imaging system (TILL Photonics GmbH) with an Olympus UPlanApo 100X 1.3 NA oil immersion objective. The bandpass filter sets used to image probes 1-3 were excitation 427/10 nm and emission 510/20 nm. The bandpass filter sets used to image probes 4-6 were excitation 485/20 nm and emission 525/30 nm. The bandpass filter sets used to image ER-tracker Blue-White DPX were excitation 390/40 nm and emission 525/30 nm. The bandpass filter sets used to image Cy5-based mitochondrial dye were excitation 560/25 nm and emission 684/24 nm. C. albicans cells (ATCC 24433 and SN152) and C. glabrata (ATCC 66032) treated with probes 1-6 were imaged on a Nikon Ti microscope equipped with a Plan Apo VC 100X oil objective and a Zyla 5.5 sCMOS camera (Andor) run by NIS elements Ar software. The bandpass filter sets used to image probes 1-3, and DiOC6-stained cells were excitation 440 nm and emission 480/40 nm. The bandpass filter sets used to image cells treated with probes 4-6, excitation 470 nm and emission 525/50 nm were used. For Eno1-mCherry, excitation 585 nm and emission 630/75 nm were used. To optimize the probes, the effects of the concentration (1, 5 and 10 μM), incubation time (5, 30, 60 and 120 min) and media (YPD and HBSS) were investigated. Images were processed using ImageJ program. The smoothed imaged were generated using the convolve filter (Normalize Kernel).
In the case of `COC(=O)CCC1=[N+]2C(=Cc3c(C)cc(C)n3[B-]2(F)F)C=C1` [BODIPY-methyl ester], the staining pattern was “the entire cytoplasm was labeled in a non-specific pattern”. In the case of `CN(C)c1ccc(-c2cnc(-c3ccc(S(=O)(=O)NCCNC(=O)c4c(F)c(F)c(F)c(F)c4F)cc3)o2)cc1` [Blue-White DPX], the staining pattern was “stained Candida glabrata cells only; also recorded: non-specific labeling of additional intracellular compartments, such as lipid droplets, was observed”. In the case of `CCCCCCN1C(=CC=Cc2oc3ccccc3[n+]2CCCCCC)Oc2ccccc21.[I-]` [DiOC6, 3,3′-dihexyloxacarbocyanine iodide], the staining pattern was “more significant in C. albicans than in C. glabrata yeast cells; also recorded: non-specific labeling of additional intracellular compartments, such as lipid droplets, was observed”. In the case of `CCOC(=O)c1cc2ccc(N(CC)CC)cc2oc1=O` [ethyl ester of 7-(diethyl)-aminocoumarin, 7-(diethyl)-aminocoumarin ethyl ester], the staining pattern was “did not stain the yeast cell interior of any of the tested Candida strains”.

System: not given
Assay: not given
Settings: commercial ER-trackers; cited from earlier work
For `CN(C)c1ccc(-c2cnc(-c3ccc(S(=O)(=O)NCCNC(=O)c4c(F)c(F)c(F)c(F)c4F)cc3)o2)cc1` [Blue-White DPX], the “emission (em)” value is listed as 430-640 nm and the “excitation (ex)” value is listed as 374 nm. In the case of `CCCCCCN1C(=CC=Cc2oc3ccccc3[n+]2CCCCCC)Oc2ccccc21.[I-]` [DiOC6, 3,3′-dihexyloxacarbocyanine iodide], the “emission (em)” value is given as 500 nm and the “excitation (ex)” value is given as 480 nm.
